The target in one assay is PIK3CD (Human) (UniProt O00329). As to the kind of experiment: Assessment of PIK3CD Kinase Activity.
The next assay concerns the target PIK3CG (human) (UniProt P48736). The assay can be described thus: Assessment of PIK3CG Kinase Activity.
For another assay, the target named is PIK3CA (human) (UniProt P42336). As to the kind of experiment: Assessment of PIK3CA Kinase Activity.
A further assay concerns the target PIK3CB (Human) (UniProt P42338). The assay can be described thus: Assessment of PIK3CB Kinase Activity.

SMILES strings stand for the structures.

Sequence of PIK3CA (human) (P42336 whole entry, looked up): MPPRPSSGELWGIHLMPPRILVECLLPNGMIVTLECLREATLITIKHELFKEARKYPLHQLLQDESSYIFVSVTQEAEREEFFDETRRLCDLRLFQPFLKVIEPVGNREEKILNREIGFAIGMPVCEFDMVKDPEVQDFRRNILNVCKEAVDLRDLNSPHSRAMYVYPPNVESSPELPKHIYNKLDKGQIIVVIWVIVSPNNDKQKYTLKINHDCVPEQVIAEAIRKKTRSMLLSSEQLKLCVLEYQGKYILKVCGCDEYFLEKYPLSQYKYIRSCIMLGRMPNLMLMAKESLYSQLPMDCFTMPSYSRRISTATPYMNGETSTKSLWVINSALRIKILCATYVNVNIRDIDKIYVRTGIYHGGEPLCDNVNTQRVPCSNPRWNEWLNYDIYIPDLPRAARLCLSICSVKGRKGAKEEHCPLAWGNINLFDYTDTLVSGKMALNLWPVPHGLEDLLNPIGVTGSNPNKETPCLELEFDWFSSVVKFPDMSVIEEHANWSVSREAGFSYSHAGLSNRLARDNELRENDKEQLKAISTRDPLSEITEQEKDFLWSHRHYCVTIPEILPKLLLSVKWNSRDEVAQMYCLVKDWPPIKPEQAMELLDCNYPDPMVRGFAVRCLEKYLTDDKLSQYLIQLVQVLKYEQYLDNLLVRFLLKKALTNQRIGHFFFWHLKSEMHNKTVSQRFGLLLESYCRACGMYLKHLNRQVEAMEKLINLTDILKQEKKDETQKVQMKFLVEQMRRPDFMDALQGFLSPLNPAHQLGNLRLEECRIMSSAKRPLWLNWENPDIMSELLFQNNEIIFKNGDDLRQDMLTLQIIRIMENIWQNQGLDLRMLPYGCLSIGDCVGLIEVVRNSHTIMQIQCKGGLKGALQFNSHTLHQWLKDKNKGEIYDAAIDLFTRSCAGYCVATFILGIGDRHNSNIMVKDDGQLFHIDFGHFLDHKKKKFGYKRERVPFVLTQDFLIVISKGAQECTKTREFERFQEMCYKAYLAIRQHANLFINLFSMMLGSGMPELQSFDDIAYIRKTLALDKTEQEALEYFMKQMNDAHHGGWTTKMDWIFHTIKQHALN
Sequence of PIK3CD (Human) (O00329 whole entry, looked up): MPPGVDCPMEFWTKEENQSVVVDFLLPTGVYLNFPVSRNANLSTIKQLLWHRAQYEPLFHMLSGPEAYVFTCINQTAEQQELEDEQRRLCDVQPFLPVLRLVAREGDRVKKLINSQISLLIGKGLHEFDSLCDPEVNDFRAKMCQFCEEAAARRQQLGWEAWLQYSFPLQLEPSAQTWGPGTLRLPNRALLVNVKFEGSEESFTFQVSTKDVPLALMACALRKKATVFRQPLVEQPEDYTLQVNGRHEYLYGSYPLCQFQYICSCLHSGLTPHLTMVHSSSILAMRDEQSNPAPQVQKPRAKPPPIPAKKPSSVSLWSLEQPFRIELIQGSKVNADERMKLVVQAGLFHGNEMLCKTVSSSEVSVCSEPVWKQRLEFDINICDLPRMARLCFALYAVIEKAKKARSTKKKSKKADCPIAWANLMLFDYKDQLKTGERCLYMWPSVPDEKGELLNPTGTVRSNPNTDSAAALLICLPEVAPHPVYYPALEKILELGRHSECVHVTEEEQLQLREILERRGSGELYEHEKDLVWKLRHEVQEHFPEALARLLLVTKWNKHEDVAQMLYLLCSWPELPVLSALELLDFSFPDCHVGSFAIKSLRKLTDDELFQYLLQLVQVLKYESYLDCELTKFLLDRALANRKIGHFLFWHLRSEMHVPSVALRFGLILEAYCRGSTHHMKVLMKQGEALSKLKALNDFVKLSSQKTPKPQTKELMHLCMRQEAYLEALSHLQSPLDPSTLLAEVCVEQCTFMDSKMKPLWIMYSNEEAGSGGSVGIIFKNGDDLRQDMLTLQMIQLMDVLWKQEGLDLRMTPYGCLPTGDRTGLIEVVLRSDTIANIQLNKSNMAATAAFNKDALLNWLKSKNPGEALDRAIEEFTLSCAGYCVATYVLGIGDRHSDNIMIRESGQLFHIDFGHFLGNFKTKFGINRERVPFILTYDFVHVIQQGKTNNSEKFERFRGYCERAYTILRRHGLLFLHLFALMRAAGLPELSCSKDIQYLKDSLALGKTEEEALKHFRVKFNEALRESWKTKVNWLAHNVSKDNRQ
Sequence of PIK3CB (Human) (P42338 whole entry, looked up): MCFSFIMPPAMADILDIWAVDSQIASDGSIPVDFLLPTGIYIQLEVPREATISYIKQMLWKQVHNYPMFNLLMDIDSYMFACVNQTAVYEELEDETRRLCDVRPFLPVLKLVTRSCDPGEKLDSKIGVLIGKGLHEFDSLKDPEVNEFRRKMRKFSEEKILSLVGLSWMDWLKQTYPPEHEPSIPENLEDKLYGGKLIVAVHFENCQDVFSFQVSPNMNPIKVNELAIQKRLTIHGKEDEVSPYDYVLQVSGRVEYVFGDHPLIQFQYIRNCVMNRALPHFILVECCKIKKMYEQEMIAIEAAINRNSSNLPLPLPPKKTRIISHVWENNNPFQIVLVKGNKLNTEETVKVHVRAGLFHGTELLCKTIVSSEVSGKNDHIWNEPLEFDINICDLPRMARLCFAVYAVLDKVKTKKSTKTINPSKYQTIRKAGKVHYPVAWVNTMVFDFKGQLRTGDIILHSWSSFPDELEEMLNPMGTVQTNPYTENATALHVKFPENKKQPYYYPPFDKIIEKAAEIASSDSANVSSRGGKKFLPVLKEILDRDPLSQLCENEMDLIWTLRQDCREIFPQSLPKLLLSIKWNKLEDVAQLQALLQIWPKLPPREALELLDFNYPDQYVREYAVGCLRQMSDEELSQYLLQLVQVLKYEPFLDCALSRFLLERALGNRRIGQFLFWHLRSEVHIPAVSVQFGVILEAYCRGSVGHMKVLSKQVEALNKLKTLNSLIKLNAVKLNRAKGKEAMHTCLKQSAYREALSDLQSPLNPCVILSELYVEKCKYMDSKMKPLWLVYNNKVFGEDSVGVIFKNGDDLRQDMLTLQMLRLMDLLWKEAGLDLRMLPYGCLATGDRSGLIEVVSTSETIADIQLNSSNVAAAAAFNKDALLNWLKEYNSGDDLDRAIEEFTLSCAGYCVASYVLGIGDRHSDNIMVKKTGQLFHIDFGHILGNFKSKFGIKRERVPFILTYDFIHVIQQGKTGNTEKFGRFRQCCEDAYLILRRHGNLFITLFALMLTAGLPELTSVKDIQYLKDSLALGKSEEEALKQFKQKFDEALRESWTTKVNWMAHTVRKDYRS
Sequence of PIK3CG (human) (P48736 whole entry, looked up): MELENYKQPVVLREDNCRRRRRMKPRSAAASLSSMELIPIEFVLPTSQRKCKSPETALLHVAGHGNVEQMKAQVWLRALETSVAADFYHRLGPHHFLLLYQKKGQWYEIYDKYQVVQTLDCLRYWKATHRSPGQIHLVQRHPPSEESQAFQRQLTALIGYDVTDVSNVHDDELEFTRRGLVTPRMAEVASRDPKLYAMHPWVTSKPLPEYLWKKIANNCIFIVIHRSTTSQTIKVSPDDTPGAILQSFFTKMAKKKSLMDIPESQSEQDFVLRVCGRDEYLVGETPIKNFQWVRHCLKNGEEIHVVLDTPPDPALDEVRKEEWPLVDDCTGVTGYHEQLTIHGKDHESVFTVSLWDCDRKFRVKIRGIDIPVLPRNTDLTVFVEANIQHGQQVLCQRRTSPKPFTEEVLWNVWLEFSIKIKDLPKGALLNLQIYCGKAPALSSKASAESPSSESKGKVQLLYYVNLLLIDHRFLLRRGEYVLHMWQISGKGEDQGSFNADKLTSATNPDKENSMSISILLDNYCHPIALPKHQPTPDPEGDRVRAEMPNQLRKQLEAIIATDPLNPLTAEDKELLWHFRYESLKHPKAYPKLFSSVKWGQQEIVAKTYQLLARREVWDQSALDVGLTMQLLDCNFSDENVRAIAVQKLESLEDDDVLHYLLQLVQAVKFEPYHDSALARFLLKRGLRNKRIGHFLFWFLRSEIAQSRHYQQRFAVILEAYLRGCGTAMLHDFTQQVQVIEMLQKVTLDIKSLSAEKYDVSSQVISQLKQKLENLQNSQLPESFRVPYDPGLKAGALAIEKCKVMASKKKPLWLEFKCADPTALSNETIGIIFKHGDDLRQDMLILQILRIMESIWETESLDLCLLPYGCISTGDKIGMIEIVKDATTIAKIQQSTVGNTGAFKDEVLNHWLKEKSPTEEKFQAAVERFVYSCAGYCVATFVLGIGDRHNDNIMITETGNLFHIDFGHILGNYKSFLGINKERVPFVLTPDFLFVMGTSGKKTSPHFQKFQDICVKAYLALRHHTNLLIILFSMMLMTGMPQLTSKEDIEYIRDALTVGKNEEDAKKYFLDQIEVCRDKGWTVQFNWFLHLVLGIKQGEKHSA

For `COc1cc(-c2cccc3cc([C@H](C)Nc4nc(N)ncc4-c4ccccc4)n(-c4ccccc4)c(=O)c23)ccn1`, the IC50 against PIK3CD (Human) is 100 to 1000 nM; against PIK3CG (human), < 100 nM; against PIK3CA (human) it was > 10000 nM; against PIK3CB (Human), > 10000 nM.
Turning to `Cc1nc(N)nc(N[C@@H](C)c2cc3cccc(Cl)c3c(=O)n2-c2ccccc2)c1C#N`, the half-inhibitory concentration (IC50) against PIK3CD (Human), against PIK3CG (human), against PIK3CA (human) and at PIK3CB (Human) was < 100 nM throughout.
Take `COc1cncc(-c2cccc3cc([C@H](C)Nc4nc(N)ncc4C#N)n(-c4ccccc4)c(=O)c23)n1`: the IC50 was < 100 nM at PIK3CD (Human), 100 to 1000 nM against PIK3CG (human), > 10000 nM against PIK3CA (human) and > 10000 nM against PIK3CB (Human).
For `COc1nc(-c2cnc(N)nc2N[C@@H](C)c2cc3cccc(Cl)c3c(=O)n2-c2ccccc2)cs1`, the IC50 is < 100 nM on PIK3CD (Human), < 100 nM on PIK3CG (human), 100 to 1000 nM on PIK3CA (human) and < 100 nM against PIK3CB (Human).
In the case of `COc1cc(-c2cccc3cc([C@H](C)Nc4nc(N)ncc4-c4cc(O)cc(F)c4)n(-c4ccccc4)c(=O)c23)ccn1`, the IC50 was < 100 nM at PIK3CD (Human), 100 to 1000 nM at PIK3CG (human), > 10000 nM against PIK3CA (human) and > 10000 nM against PIK3CB (Human).
On to `C[C@H](Nc1nc(N)ncc1NS(C)(=O)=O)c1cc2cccc(Cl)c2c(=O)n1-c1ccccc1`, for which the IC50 on PIK3CD (Human), on PIK3CG (human), on PIK3CA (human) and against PIK3CB (Human) was > 10000 nM each time.
Turning to `COc1cc(-c2cccc3cc([C@H](C)Nc4nc(N)nc(C)c4C#N)n(-c4ccccc4)c(=O)c23)ccn1`, the IC50 against PIK3CD (Human) was < 100 nM; at PIK3CG (human) it was < 100 nM; against PIK3CA (human), < 100 nM; against PIK3CB (Human), 100 to 1000 nM.
For `C[C@H](Nc1nc(N)ncc1C#N)c1cc2cccc(C#CCCC(=O)N3CCOCC3)c2c(=O)n1-c1ccccc1`, the IC50 was < 100 nM at PIK3CD (Human), < 100 nM against PIK3CG (human), 100 to 1000 nM against PIK3CA (human) and 100 to 1000 nM against PIK3CB (Human).
Take `COc1cc(-c2cccc3cc([C@H](C)Nc4nc(N)ncc4C(=O)O)n(-c4ccccc4)c(=O)c23)ccn1`: the half-maximal inhibitory concentration (IC50) at PIK3CD (Human), against PIK3CG (human), on PIK3CA (human) and at PIK3CB (Human) was > 10000 nM throughout.
For the molecule `COc1cc(-c2cccc3cc([C@H](C)Nc4nc(N)ncc4C#N)n(C4CC4)c(=O)c23)ccn1`, the IC50 at PIK3CD (Human) is < 100 nM; against PIK3CG (human), < 100 nM; at PIK3CA (human), 100 to 1000 nM; on PIK3CB (Human), < 100 nM.
With `Cc1cc(N[C@@H](C)c2cc3cccc(Cl)c3c(=O)n2-c2ccccc2)nc(N)n1`, the IC50 against PIK3CD (Human), on PIK3CG (human), at PIK3CA (human) and on PIK3CB (Human) was > 10000 nM each time.
In the case of `C[C@H](Nc1cc(C(F)(F)F)nc(N)n1)c1cc2cccc(Cl)c2c(=O)n1-c1ccccc1`, the IC50 on PIK3CD (Human), against PIK3CG (human), at PIK3CA (human) and on PIK3CB (Human) was > 10000 nM in each case.
For the molecule `C[C@H](Nc1nc(N)ncc1C#N)c1cc2cccc(Oc3ccccc3)c2c(=O)n1-c1ccccc1`, the IC50 on PIK3CD (Human) is < 100 nM; at PIK3CG (human) it was < 100 nM; at PIK3CA (human) it was > 10000 nM; against PIK3CB (Human) it was > 10000 nM.
For `COc1cc(-c2cccc3cc([C@H](C)Nc4nc(N)ncc4C(=O)N4CC(F)(F)C4)n(-c4ccccc4)c(=O)c23)ccn1`, the IC50 at PIK3CD (Human) is 100 to 1000 nM; against PIK3CG (human), 100 to 1000 nM; against PIK3CA (human), > 10000 nM; at PIK3CB (Human), > 10000 nM.
Turning to `COc1cc(-c2cccc3cc([C@@H](C)Nc4nc(N)ncc4C#N)n(-c4ccccc4)c(=O)c23)ccn1`, the IC50 against PIK3CD (Human) was < 100 nM; on PIK3CG (human), 100 to 1000 nM; against PIK3CA (human), > 10000 nM; against PIK3CB (Human), > 10000 nM.
As to `C[C@H](Nc1nc(N)ncc1C#N)c1cc2cccc(Cl)c2c(=O)n1C1CCCC1`, the half-inhibitory concentration (IC50) on PIK3CD (Human) was < 100 nM; at PIK3CG (human), < 100 nM; at PIK3CA (human) it was > 10000 nM; on PIK3CB (Human) it was 100 to 1000 nM.
Regarding `C[C@H](Nc1ncnc(Cl)c1[N+](=O)[O-])c1cc2cccc(Cl)c2c(=O)n1-c1ccccc1`, the IC50 at PIK3CD (Human) was 100 to 1000 nM; against PIK3CG (human), > 10000 nM; at PIK3CA (human) it was > 10000 nM; on PIK3CB (Human) it was > 10000 nM.
For `C[C@H](Nc1ncnc(N)c1[N+](=O)[O-])c1cc2cccc(Cl)c2c(=O)n1-c1ccccc1`, the IC50 against PIK3CD (Human) is < 100 nM; against PIK3CG (human), < 100 nM; on PIK3CA (human), 100 to 1000 nM; against PIK3CB (Human) it was < 100 nM.
For the molecule `C[C@H](Nc1nc(N)ncc1C#N)c1cc2cccc(-c3cccc(O)n3)c2c(=O)n1-c1ccccc1`, the IC50 was < 100 nM on PIK3CD (Human), 100 to 1000 nM against PIK3CG (human), > 10000 nM against PIK3CA (human) and > 10000 nM at PIK3CB (Human).
As to `Cc1ncc(-c2cccc3nc([C@H](C)Nc4nc(N)ncc4C#N)n(-c4ccccc4)c(=O)c23)cn1`, the IC50 is < 100 nM against PIK3CD (Human), < 100 nM against PIK3CG (human), > 10000 nM against PIK3CA (human) and > 10000 nM on PIK3CB (Human).
As to `C[C@H](Nc1nc(N)ncc1C#N)c1cc2cccc(-c3cnc4ccccc4c3)c2c(=O)n1-c1ccccc1`, the IC50 on PIK3CD (Human) is < 100 nM; at PIK3CG (human), < 100 nM; against PIK3CA (human), < 100 nM; against PIK3CB (Human), 100 to 1000 nM.
For the molecule `C[C@H](Nc1nc(N)ncc1-c1cccnc1)c1cc2cccc(Cl)c2c(=O)n1-c1ccccc1`, the IC50 was 100 to 1000 nM at PIK3CD (Human), < 100 nM against PIK3CG (human), > 10000 nM at PIK3CA (human) and > 10000 nM against PIK3CB (Human).
In the case of `Cc1ccc(-c2cccc3cc([C@H](C)Nc4nc(N)ncc4C#N)n(-c4ccccc4)c(=O)c23)cc1`, the IC50 was < 100 nM against PIK3CD (Human), < 100 nM against PIK3CG (human), 100 to 1000 nM on PIK3CA (human) and 100 to 1000 nM on PIK3CB (Human).
Take `COc1cc(-c2cccc3cc([C@H](C)Nc4nc(N)ncc4C(=O)N(C)C)n(-c4ccccc4)c(=O)c23)ccn1`: the IC50 was < 100 nM on PIK3CD (Human), < 100 nM against PIK3CG (human), 100 to 1000 nM against PIK3CA (human) and > 10000 nM at PIK3CB (Human).
On to `COc1cc(-c2cccc3cc([C@H](C)Nc4nc(N)ncc4-c4ccc(F)c(O)c4)n(-c4ccccc4)c(=O)c23)ccn1`, for which the IC50 on PIK3CD (Human) was < 100 nM; against PIK3CG (human), < 100 nM; on PIK3CA (human), > 10000 nM; at PIK3CB (Human), > 10000 nM.
As for `C[C@H](Nc1nc(N)ncc1C#N)c1cc2cccc(Cl)c2c(=O)n1-c1ccc(F)cc1`, the IC50 on PIK3CD (Human) is 100 to 1000 nM; on PIK3CG (human) it was 100 to 1000 nM; on PIK3CA (human), > 10000 nM; against PIK3CB (Human), > 10000 nM.
On to `Cc1ncc(-c2cnc(N)nc2N[C@@H](C)c2cc3cccc(Cl)c3c(=O)n2-c2ccccc2)s1`, for which the IC50 at PIK3CD (Human) is < 100 nM; on PIK3CG (human), < 100 nM; against PIK3CA (human), > 10000 nM; on PIK3CB (Human), 100 to 1000 nM.
As for `C[C@H](Nc1nc(N)ncc1C#N)c1cc2cccc(Cl)c2c(=O)n1C`, the IC50 against PIK3CD (Human) is 100 to 1000 nM; against PIK3CG (human), 100 to 1000 nM; at PIK3CA (human), > 10000 nM; on PIK3CB (Human), 100 to 1000 nM.
In the case of `C[C@H](Nc1nc(N)ncc1C#N)c1cc2cccc(-c3ccnc(O)c3)c2c(=O)n1-c1ccccc1`, the IC50 on PIK3CD (Human) was < 100 nM; against PIK3CG (human), < 100 nM; on PIK3CA (human), > 10000 nM; at PIK3CB (Human) it was > 10000 nM.

For the origin of these results see the Kinase Knowledgebase extract (Sharma et al. 2016).
